Measurements from patent publication US20250204515A1, “Heparanase Inhibition for Graft Protection” (University of Pittsburgh - Of the Commonwealth System of …, priority 2022, published 2025).
“Also recorded” adds a separate entry of the source.

Columns and labels:
Format in all cases: in vivo
[1] = tested on: rat lungs; assay: Ex vivo lung perfusion (EVLP) of donor-pretreated rat lungs; conditions: donor pre-treatment; for pulmonary vascular resistance (PVR) during EVLP: 3 h normothermic EVLP; for syndecan-1 concentration in EVLP perfusate: during EVLP, vs increasing levels in control; for Evans blue dye (EBD) penetration into lung parenchyma: last 30 min of EVLP, vs control
Experimental: Ex vivo lung perfusion in rats. EVLP was performed using a commercially available rodent EVLP system (IPL-2 Isolated Perfused Rat or Guinea Pig Lung System; Harvard Apparatus, Holliston, MA). After procurement, the lungs were kept under cold ischemia for 1 h, then placed on the EVLP system, ventilated with air warmed to 37′, and perfused with 100 ml STEEN solution (XVIVO Perfusion AB) that was deoxygenated with 6% O2, 8% CO2 and balanced N2 and supplemented with 50 mg of methylprednisolone (Solu-Medrol; Pfizer, Inc.) and 50 mg of cephalosporin (Cefazolin; West-Ward Pharmaceuticals Corp., Eatontown, NJ). […] Pulmonary artery pressure, peak airway pressure, and airway flow were monitored continuously, and lung compliance and PVR were calculated every hour.
Assessment of endothelial barrier function. After 3 h of EVLP, 6 mg of Evans blue dye (EBD, Millipore Sigma) was administered into the perfusate to assess vascular endothelial permeability. After 30 min of perfusion, the lung vascular bed was rinsed with 20 ml of PBS and pieces of lungs were incubated overnight in formamide (Millipore Sigma) at 60° C. Absorbance of the extractant was measured at 620 nm to quantitate the amount of EBD that had permeabilized into the tissue and was normalized to dry-tissue weight.
Determination of glycocalyx components in rat lung grafts. For rat lung tissue, syndecan-1 released into the perfusate during EVLP was measured with a rat-specific ELISA (Immunotag Rat SDC1 (Syndecan-1) ELISA, G-Biosciences, St. Louis, MO). Glycocalyx glycosaminoglycans (GAGs) were quantitated using the 1,9-dimethylmethylene blue (DMMB, Millipore Sigma) method with modifications. A 1 L solution of DMMB (pH˜3.0) was prepared by dissolving 16 mg DMMB in distilled H2O containing 3.04 g/A glycine, 1.6 g/A NaCl and 95 ml 0.1 M acetic acid. Briefly, 1 ml DMMB solution was added to 20 μl lung tissue lysate then incubated at room temperature for 1 h on a tube rotator. The tubes were then centrifuged at 14,000 rpm for 15 min at 4° C. Supernatants were carefully decanted, 200 μL sodium lauryl sulfate buffer (2.08 mM) was added to each pellet, and the tubes were vortexed until GAG-DMMB pellets were no longer visible. GAG content in each sample was measured spectrophotometrically at 656 nm.

[2] = tested on: rat lung grafts; assay: Rat orthotopic left lung transplantation of donor-pretreated lungs: graft function, edema, histology, cell infiltration; conditions: for T-cell (CD3+) infiltration / macrophage (CD68+) infiltration / polymorphonuclear neutrophil (PMN) infiltration: 2 h after reperfusion; for T-cell (CD3+) infiltration / macrophage (CD68+) infiltration / wet-to-dry (W/D) ratio / polymorphonuclear neutrophil (PMN) infiltration: vs control; for congestion, swollen alveolar walls, secretions in the airways (H&E) / wet-to-dry (W/D) ratio / PaO2/FiO2 (P/F) ratio: 2 h after transplantation, donor pre-treatment; for PaO2/FiO2 (P/F) ratio: vs control lung grafts; for polymorphonuclear neutrophil (PMN) infiltration: naphthol staining
Description: Study design. To investigate the stability of eGC in lung grafts and its potential influence on graft function and quality after reperfusion, we established rat models with damaged or preserved lung eGC and performed orthotopic, single, left-lung transplantation or EVLP using the lungs from these rats. Animals were randomly assigned 4 different groups; (1) native lungs (normal control), (2) Control: lungs with eGC damage, (3) Heparin: lungs with eGC preserved by heparin, and (4) NAH: lungs with eGC preserved by NAH. Shedding of the eGC was induced in vivo by donor systemic ischemia. After 1 h of ischemia in vivo, lungs were procured in a standardized fashion for lung transplantation then either directly transplanted or subjected to EVLP and assessed biologically. Native lungs were not subjected to any insult.
(§1) Models of lungs with damaged or preserved eGC and rat orthotopic left lung transplantation. Rats were sedated with 4% isoflurane via inhalation for tracheostomy and then placed on a ventilator. They received 5% isoflurane with 100% O2 via inhalation through the ventilator for 15 min to induce a deep state of anesthesia that causes arrest of spontaneous breathing. The rats were disconnected from the ventilator 5 min after intravenous administration of heparin (300 IU), a heparin derivative without anti-coagulant properties (300 μg; N-acetyl heparin (NAH) (Millipore Sigma, Burlington, MA)), or saline (300 μl, control) through the jugular vein. Cardiac activity and blood oxygen saturation were monitored after disconnection from ventilator until cardiac arrest. One hour after induction of ischemia, a median thoracotomy was performed, and blood was flushed from the lungs with cold, low potassium dextran solution (PERFADEX; XVIVO Perfusion AB) through the pulmonary artery. Then, the heart-lung bloc was isolated and stored in cold PERFADEX for 6 h before transplantation.
Orthotopic single-lung transplantation of the left lung was performed using the cuff method. Two hours after reperfusion, the naive lung was clamped, 100% 02 was administered for 5 min through a ventilator, and the recipient's blood was sampled from the graft pulmonary vein for blood gas analysis.
Wet-to-dry (W/D) weight ratio. The weight of the lung tissues was measured immediately after collection (wet weight). The lung tissue was then placed into a 60° C. oven to dry for 72 h. Tissues were weighed to deter-mine the dry weight, and the wet-to-dry ratio was calculated.
Tissue staining and histopathological analysis. Formalin-fixed, paraffin-embedded lung tissues collected 2 h after transplantation were sectioned to 4-μm thickness and stained with hematoxylin and eosin. The sections were also stained for immunofluorescent imaging using primary antibodies for CD3 (Invitrogen), CD68 (Invitrogen), or syndecan-1 (Santa Cruz), and Hoechst 33342 dye for nuclear staining. Primary antibody was detected by secondarily Cy5-conjugated goat anti-rabbit IgG (Invitrogen) and Cy3-conjugated goat anti-mouse IgG (Millipore Sigma).
Polymorphonuclear neutrophils (PMNs) were stained using a naphthol AS-D chloroacetate esterase staining kit (Millipore Sigma) and identified by nuclear morphology staining in bright red. Stained slides were scanned with a whole-slide image scanner (Axio Scan.Z1; Carl Zeiss) and analyzed with digital image processing software (ZEN lite blue edition; Carl Zeiss). Stained cells were counted by two investigators with the identity of the samples masked.

[3] = tested on: endothelial glycocalyx (eGC); assay: Gross inspection and TEM glycocalyx imaging of rat lungs after 1 h warm ischemia; conditions: for gross visual appearance of excised lungs: heparin 300 IU or NAH 300 μg i.v. before 1 h ischemia; for eGC ultrastructure in lung vasculature (TEM): heparin 300 IU or NAH 300 μg i.v. before 1 h warm ischemia, vs control
Experimental: as §1
TEM for glycocalyx imaging. To prepare the tissue for transmission electron microscopy imaging, blood was flushed from rat lungs with PBS via the pulmonary artery after 1 h of warm ischemia, then the lungs were perfused with a solution containing 2% glutaraldehyde, 2% sucrose, 0.1 M sodium cacodylate buffer (pH 7.3, Sigma), and 2% lanthanum nitrate (Sigma). Excised lung tissues were incubated with the same solution for 2 h at 4° C. for fixation. The fixed tissues were immersed in a 2% sucrose, 0.1 M sodium cacodylate buffer (pH 7.3) solution with 2% lanthanum nitrate overnight at 4° C. to stain the glycocalyx, then washed twice with an alkaline solution (0.03 mol/l NaOH) containing 2% sucrose. Following fixation and glycocalyx staining with lanthanum nitrate, the specimens were rinsed in PBS, post-fixed in 1% osmium tetroxide (Electron Microscopy Sciences, Hatfield, PA), rinsed in PBS a second time, dehydrated through a graded series of ethanol and propylene oxide (Electron Microscopy Sciences), and embedded using a Poly/Bed 812 (Luft formulations) Embedding Kit (Polysciences, Warrington, PA). Sections were cut on a Leica-Reichart Ultracut ultra-microtome (Leica Microsystems, Buffalo Grove, IL). Semi-thin (300 nm) sections were stained with 0.5% toluidine blue in 1% sodium borate (toluidine blue O and sodium borate, Fisher Scientific, Pittsburgh, PA) and examined under the light microscope. Ultrathin sections (65 nm) were stained with uranyl acetate and Reynold's lead citrate and examined on a JEOL 1400 transmission electron microscope (JEOL Peabody, MA) with a side-mount AMT 2 k digital camera (Advanced Microscopy Techniques, Danvers, MA).

Row | Substance | pulmonary vascular resistance (PVR) during EVLP [1] | syndecan-1 concentration in EVLP perfusate [1] | Evans blue dye (EBD) penetration into lung parenchyma [1] | T-cell (CD3+) infiltration [2] | macrophage (CD68+) infiltration [2] | congestion, swollen alveolar walls, secretions in the airways (H&E) [2] | wet-to-dry (W/D) ratio [2] | PaO2/FiO2 (P/F) ratio [2] | polymorphonuclear neutrophil (PMN) infiltration [2] | gross visual appearance of excised lungs [3] | eGC ultrastructure in lung vasculature (TEM) [3]
1 | heparin | little to no increase | maintained at a constant level | significantly less EBD penetration | significantly reduced | significantly reduced | not observed | lower | significantly higher | significantly reduced | no significant changes in appearance | preserved; also recorded: intact and adherent to the cell surface
2 | N-acetyl heparin [NAH] | little to no increase | maintained at a constant level | significantly less EBD penetration | significantly reduced | significantly reduced | not observed | lower | significantly higher | significantly reduced | no significant changes in appearance | intact and adherent to the cell surface
